Test system: Plasmodium berghei
Assay: Luciferase/luciferin-expressing antifolate-resistant parasites were used to infect a culture of HepG2 cells that were pre-incubated with compounds. Infected hepatocytes emit light due to the luciferase reaction. Assay results are presented as the percent inhibition of light emission compared to control. […]
Assay type: functional
Conditions: sporozoite; for IC90: read-out: LUCIFERASE INFECTION ASSAY - IC90

Structure (SMILES): O=C(NCc1ccc(Oc2ccc(F)cc2)cc1)C1Cc2ccccc2O1 (stereo not given)
- IC50 (HEPG2TOX_HILL_SLOPE 1.58, HEPG2TOX_R_SQUARED 0.911, PBLUC_HILL_SLOPE 12.2, PBLUC_R_SQUARED 0.351, read-out: LUCIFERASE INFECTION ASSAY - IC50): 3.21 µM
- IC90: 3.84 µM

Structure (SMILES): COc1cn(-c2ccccc2)nc1C(=O)N1CCc2ccccc21
- IC50 (HEPG2TOX_HILL_SLOPE 1.58, HEPG2TOX_R_SQUARED 0.907, PBLUC_HILL_SLOPE 2.39, PBLUC_R_SQUARED 0.888, read-out: LUCIFERASE INFECTION ASSAY - IC50): 0.0972 µM
- IC90: 0.243 µM

Structure (SMILES): CN(C)c1ccc(-c2cc(Nc3cccc(OCc4ccccc4)c3)ncn2)cc1
- IC50 (HEPG2TOX_HILL_SLOPE 1.6, HEPG2TOX_R_SQUARED 0.897, PBLUC_HILL_SLOPE 1.97, PBLUC_R_SQUARED 0.838, read-out: LUCIFERASE INFECTION ASSAY - IC50): 0.526 µM
- IC90: 1.61 µM

Structure (SMILES): COc1ccccc1-c1ccc2ncc(-c3cccc(NC(C)=O)c3)n2n1
- IC50 (HEPG2TOX_HILL_SLOPE 1.56, HEPG2TOX_R_SQUARED 0.888, PBLUC_HILL_SLOPE 1.15, PBLUC_R_SQUARED 0.442, read-out: LUCIFERASE INFECTION ASSAY - IC50): 4.22 µM
- IC90: > 10 µM

Structure (SMILES): O=C(NCCO)c1cccc(-c2ccc3ncc(-c4cccnc4)n3n2)c1
- IC50 (HEPG2TOX_HILL_SLOPE 1.56, HEPG2TOX_R_SQUARED 0.733, PBLUC_HILL_SLOPE 4.25, PBLUC_R_SQUARED 0.42, read-out: LUCIFERASE INFECTION ASSAY - IC50): 2.34 µM
- IC90: 3.93 µM

Structure (SMILES): COC1CC(O[C@H]2CC[C@]3(C)C4CC[C@]5(C)[C@@H](C6=CC(=O)OC6)CC[C@]5(O)[C@@H]4CC[C@]3(O)C2)OC(C)C1O (stereo not given in full)
- IC50 (HEPG2TOX_HILL_SLOPE 1.6, HEPG2TOX_R_SQUARED 0.898, PBLUC_HILL_SLOPE 2.36, PBLUC_R_SQUARED 0.616, read-out: LUCIFERASE INFECTION ASSAY - IC50): 0.0698 µM
- IC90: 0.177 µM

Structure (SMILES): CNC(=O)c1cccc(-c2ccc3ncc(-c4cccc(C(F)(F)F)c4)n3n2)c1
- IC50 (HEPG2TOX_HILL_SLOPE 1.58, HEPG2TOX_R_SQUARED 0.903, PBLUC_HILL_SLOPE 3.01, PBLUC_R_SQUARED 0.663, read-out: LUCIFERASE INFECTION ASSAY - IC50): 1.42 µM
- IC90: 2.95 µM

Structure (SMILES): O=C(NCc1ccc(N2CCCC2=O)cc1)c1cccnc1OCC(F)(F)F
- IC50 (HEPG2TOX_HILL_SLOPE 1.59, HEPG2TOX_R_SQUARED 0.969, PBLUC_HILL_SLOPE 1.45, PBLUC_R_SQUARED 0.646, read-out: LUCIFERASE INFECTION ASSAY - IC50): 0.899 µM
- IC90: 4.11 µM

Structure (SMILES): COc1cc(C2CC(=O)c3cn[nH]c3C2)cc(OC)c1OC (stereo not given)
- IC50 (HEPG2TOX_HILL_SLOPE 1.57, HEPG2TOX_R_SQUARED 0.775, PBLUC_HILL_SLOPE 1.9, PBLUC_R_SQUARED 0.199, read-out: LUCIFERASE INFECTION ASSAY - IC50): 5.83 µM
- IC90: > 10.9 µM

Structure (SMILES): COc1cc(Nc2cncc(-c3ccc(N)cc3)n2)cc(OC)c1OC
- IC50 (HEPG2TOX_HILL_SLOPE 1.6, HEPG2TOX_R_SQUARED 0.917, PBLUC_HILL_SLOPE 3.36, PBLUC_R_SQUARED 0.719, read-out: LUCIFERASE INFECTION ASSAY - IC50): 0.955 µM
- IC90: 1.84 µM

Structure (SMILES): CC(C)c1ccc(Nc2nccc3nc(-c4ccc(F)c(F)c4)[nH]c23)cc1
- IC50 (HEPG2TOX_HILL_SLOPE 1.58, HEPG2TOX_R_SQUARED 0.81, PBLUC_HILL_SLOPE 0.658, PBLUC_R_SQUARED 0.852, read-out: LUCIFERASE INFECTION ASSAY - IC50): 0.969 µM
- IC90: > 10 µM

Structure (SMILES): C[C@@H]1OC(O[C@H]2C[C@@H](O)[C@]3(CO)[C@@H]4C(CC[C@]3(O)C2)[C@@]2(O)CC[C@H](C3=CC(=O)OC3)[C@@]2(C)C[C@H]4O)[C@H](O)[C@H](O)[C@H]1O (stereo not given in full)
- IC50 (HEPG2TOX_HILL_SLOPE 1.56, HEPG2TOX_R_SQUARED 0.89, PBLUC_HILL_SLOPE 1.86, PBLUC_R_SQUARED 0.797, read-out: LUCIFERASE INFECTION ASSAY - IC50): 0.0548 µM
- IC90: 0.179 µM

Structure (SMILES): Cc1ccc(NS(=O)(=O)c2cccc(C(=O)OC(C)C(=O)c3cc(C)n(-c4ccc(Cl)cc4)c3C)c2)cc1 (stereo not given)
- IC50 (HEPG2TOX_HILL_SLOPE 1.57, HEPG2TOX_R_SQUARED 0.97, PBLUC_HILL_SLOPE 17.7, PBLUC_R_SQUARED 0.634, read-out: LUCIFERASE INFECTION ASSAY - IC50): 3.18 µM
- IC90: 3.6 µM

Structure (SMILES): FC(F)(F)Oc1cccc(-c2nc3ccnc(NCCc4ccccn4)c3[nH]2)c1
- IC50 (HEPG2TOX_HILL_SLOPE 1.56, HEPG2TOX_R_SQUARED 0.653, PBLUC_HILL_SLOPE 2.89, PBLUC_R_SQUARED 0.498, read-out: LUCIFERASE INFECTION ASSAY - IC50): 3.34 µM
- IC90: 7.15 µM

Structure (SMILES): COc1cccc(CN(C)S(=O)(=O)NC2CCC(C)CC2)c1 (stereo not given)
- IC50 (HEPG2TOX_HILL_SLOPE 1.57, HEPG2TOX_R_SQUARED 0.723, PBLUC_HILL_SLOPE 2.26, PBLUC_R_SQUARED 0.44, read-out: LUCIFERASE INFECTION ASSAY - IC50): 7.19 µM
- IC90: > 10 µM

Structure (SMILES): O=C1N(Cc2ccccc2)C(=O)C2(CCN(CC3CC=CCC3)CC2)N1CCc1ccccc1 (stereo not given)
- IC50 (HEPG2TOX_HILL_SLOPE 1.57, HEPG2TOX_R_SQUARED 0.788, PBLUC_HILL_SLOPE 4.98, PBLUC_R_SQUARED 0.479, read-out: LUCIFERASE INFECTION ASSAY - IC50): 4.9 µM
- IC90: > 7.21 µM

Structure (SMILES): O=C(Nc1ccc(N2CCOCC2)nc1)c1ccc(S(=O)(=O)N2CCCc3ccccc32)cc1
- IC50 (HEPG2TOX_HILL_SLOPE 1.57, HEPG2TOX_R_SQUARED 0.865, PBLUC_HILL_SLOPE 1.66, PBLUC_R_SQUARED 0.608, read-out: LUCIFERASE INFECTION ASSAY - IC50): 2.98 µM
- IC90: > 10 µM

Structure (SMILES): O=C(Nc1ccc(Oc2ccccc2)cc1)c1csc(C(O)c2cccc(OC(F)(F)F)c2)n1 (stereo not given)
- IC50 (HEPG2TOX_HILL_SLOPE 1.57, HEPG2TOX_R_SQUARED 0.929, PBLUC_HILL_SLOPE 3.6, PBLUC_R_SQUARED 0.22, read-out: LUCIFERASE INFECTION ASSAY - IC50): 2.8 µM
- IC90: 5.15 µM

Structure (SMILES): COc1ccc(-c2cnc3cnc(-c4ccccc4)cn23)cc1
- IC50 (HEPG2TOX_HILL_SLOPE 1.56, HEPG2TOX_R_SQUARED 0.972, PBLUC_HILL_SLOPE 1.73, PBLUC_R_SQUARED 0.792, read-out: LUCIFERASE INFECTION ASSAY - IC50): 0.932 µM
- IC90: 3.33 µM

Structure (SMILES): Cc1nn(-c2ccccc2)c2sc(C(=O)NNc3nc(CN4CCOCC4)nc4scc(-c5ccccc5)c34)cc12
- IC50 (HEPG2TOX_HILL_SLOPE 1.59, 8.29, HEPG2TOX_R_SQUARED 0.901, 0.855, PBLUC_HILL_SLOPE 12, PBLUC_R_SQUARED 0.591, read-out: LUCIFERASE INFECTION ASSAY - IC50): 8.46 µM
- IC90: > 10 µM

Structure (SMILES): Cc1cc(C)cc(-n2c(C)cc(C(=O)CNC(=O)NCc3ccccc3)c2C)c1
- IC50 (HEPG2TOX_HILL_SLOPE 1.59, HEPG2TOX_R_SQUARED 0.958, PBLUC_HILL_SLOPE 2.43, PBLUC_R_SQUARED 0.455, read-out: LUCIFERASE INFECTION ASSAY - IC50): 1.32 µM
- IC90: 3.27 µM

Structure (SMILES): COc1ccccc1NC(=O)/C=c1\s/c(=C\c2cnn(-c3ccccc3)c2)c(=O)n1C
- IC50 (HEPG2TOX_HILL_SLOPE 1.6, HEPG2TOX_R_SQUARED 0.888, PBLUC_HILL_SLOPE 1.61, PBLUC_R_SQUARED 0.941, read-out: LUCIFERASE INFECTION ASSAY - IC50): 0.161 µM
- IC90: 0.632 µM

Structure (SMILES): CC(C)(C)c1n[nH]c2c(-c3nc4ccccc4s3)c(N)nn2c1=O
- IC50 (HEPG2TOX_HILL_SLOPE 1.58, HEPG2TOX_R_SQUARED 0.969, PBLUC_HILL_SLOPE 3.76, PBLUC_R_SQUARED 0.505, read-out: LUCIFERASE INFECTION ASSAY - IC50): 3.16 µM
- IC90: 5.67 µM

Structure (SMILES): Cc1ccc(S(=O)(=O)N2CCC[C@H]2C(=O)Nc2ccc(-c3nc4ccccc4[nH]3)cc2)cc1
- IC50 (HEPG2TOX_HILL_SLOPE 1.59, HEPG2TOX_R_SQUARED 0.747, PBLUC_HILL_SLOPE 12.8, PBLUC_R_SQUARED 0.235, read-out: LUCIFERASE INFECTION ASSAY - IC50): 8.44 µM
- IC90: > 10 µM

Structure (SMILES): Cn1ccc2cc(-c3cn4c(-c5cccc(F)c5)cnc4cn3)ccc21
- IC50 (HEPG2TOX_HILL_SLOPE 1.6, HEPG2TOX_R_SQUARED 0.918, PBLUC_HILL_SLOPE 3.4, PBLUC_R_SQUARED 0.713, read-out: LUCIFERASE INFECTION ASSAY - IC50): 1.14 µM
- IC90: 2.18 µM

Structure (SMILES): N#Cc1ccc(CN2CCN(CC(=O)Nc3nc(-c4c[nH]c5ccccc45)cs3)CC2)cc1
- IC50 (HEPG2TOX_HILL_SLOPE 1.59, HEPG2TOX_R_SQUARED 0.927, PBLUC_HILL_SLOPE 64.1, PBLUC_R_SQUARED 0.488, read-out: LUCIFERASE INFECTION ASSAY - IC50): 3.33 µM
- IC90: 3.45 µM

Structure (SMILES): O=C(NNC(=O)c1sc(-c2ccco2)nc1-c1ccccc1)c1ccccn1
- IC50 (HEPG2TOX_HILL_SLOPE 1.58, HEPG2TOX_R_SQUARED 0.893, PBLUC_HILL_SLOPE 37.6, PBLUC_R_SQUARED 0.722, read-out: LUCIFERASE INFECTION ASSAY - IC50): 3.14 µM
- IC90: 3.33 µM

Structure (SMILES): Nc1nccnc1C(=O)NNC(=O)COc1ccccc1Cc1ccccc1
- IC50 (HEPG2TOX_HILL_SLOPE 1.59, HEPG2TOX_R_SQUARED 0.794, PBLUC_HILL_SLOPE 15.4, PBLUC_R_SQUARED 0.41, read-out: LUCIFERASE INFECTION ASSAY - IC50): 3.18 µM
- IC90: 3.67 µM

Structure (SMILES): Cn1c(Nc2ccccc2)nc2cnc(-c3cccc4ccccc34)cc21
- IC50 (HEPG2TOX_HILL_SLOPE 1.56, HEPG2TOX_R_SQUARED 0.963, PBLUC_HILL_SLOPE 1.41, PBLUC_R_SQUARED 0.827, read-out: LUCIFERASE INFECTION ASSAY - IC50): 0.98 µM
- IC90: 4.66 µM

Structure (SMILES): COc1cc(/C=C/C(=O)Nc2ccc3c(c2)nc2n3CCCCC2)ccc1OS(=O)(=O)c1ccc(C)cc1
- IC50 (HEPG2TOX_HILL_SLOPE 1.59, HEPG2TOX_R_SQUARED 0.591, PBLUC_HILL_SLOPE 1.96, PBLUC_R_SQUARED 0.277, read-out: LUCIFERASE INFECTION ASSAY - IC50): 2.71 µM
- IC90: 8.3 µM
